pIC50: −log10 of the molar value.
These compounds were tested against T1, human β-Secretase (Homo sapiens, UniProt P56817) (assay: TR-FRET assay). Details: soluble human β-Secretase (sBACE-Fc), substrate (Europium)[…](Qsy7) 100 nM, pH 4.5.
T1 construct: The soluble part of the human β-Secretase (AA 1-AA 460) was cloned; made in house
Format: biochemical
Procedure: The enzyme used in the IGEN Cleavage-, Fluorescent-, TR-FRET- and BiaCore assays is described as follows: The soluble part of the human β-Secretase (AA 1-AA 460) was cloned into the […]-Fc10-1-IRES-GFP-neoK mammalian expression vector. The gene was fused to the Fc domain of IgG1 (affinity tag) and stably cloned into HEK 293 cells. Purified sBACE-Fc is stored in Tris buffer, pH 9.2 and has a purity of 95%. TR-FRET Assay Enzyme was diluted to 6 μg/mL and the substrate ([…]7) to 200 nM in reaction buffer (NaAcetate, chaps, triton x-100, EDTA pH 4.5). Compounds were diluted to the desired concentration in dimethyl sulfoxide (final dimethyl sulfoxide concentration in assay is 5%). […] Enzyme (9 μL) and 1 μL of compound in dimethyl sulfoxide was added to the plate, mixed and pre-incubated for 10 min. Substrate (10 μL) was added and the reaction proceeded in the dark for 15 min at RT. The reaction was stopped with the addition of 7 μL NaAcetate, pH 9.

T1 sequence (P56817 22-460): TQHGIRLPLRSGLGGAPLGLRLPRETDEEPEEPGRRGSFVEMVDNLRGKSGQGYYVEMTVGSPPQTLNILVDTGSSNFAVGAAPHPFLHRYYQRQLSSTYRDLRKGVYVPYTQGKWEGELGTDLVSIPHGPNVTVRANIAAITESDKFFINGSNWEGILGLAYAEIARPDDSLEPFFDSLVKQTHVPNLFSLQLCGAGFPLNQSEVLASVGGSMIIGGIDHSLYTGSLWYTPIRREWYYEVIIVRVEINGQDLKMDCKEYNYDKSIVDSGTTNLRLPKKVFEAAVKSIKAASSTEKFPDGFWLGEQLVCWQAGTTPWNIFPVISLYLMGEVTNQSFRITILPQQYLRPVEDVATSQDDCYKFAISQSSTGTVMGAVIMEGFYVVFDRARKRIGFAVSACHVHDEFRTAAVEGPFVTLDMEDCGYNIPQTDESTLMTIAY

SMILES | pIC50
COc1ccc(C2(c3ccc(F)c(-c4cccnc4F)c3)N=C(N)N3CC(F)(F)CN=C32)cc1C (centres unmarked) [Example 87, 3,3-Difluoro-8-(4-fluoro-3-(2-fluoropyridin-3-yl)phenyl)-8-(4-methoxy-3-methylphenyl)-2,3,4,8-tetrahydroimidazo[1,5-a]pyrimidin-6-amine acetate] | 7.39
NC1=NC(c2ccncc2)(c2cccc(-c3cccnc3F)c2)C2=NCC(F)(F)CN12 (centres unmarked) [Example 44, 3,3-Difluoro-8-[3-(2-fluoropyridin-3-yl)phenyl]-8-pyridin-4-yl-2,3,4,8-tetrahydroimidazo[1,5-a]pyrimidin-6-amine 0.75 acetate] | 6.92
COc1ccc(C2(c3cccc(-c4cncnc4)c3)N=C(N)N3CC(OC)CN=C32)cc1 (mixture of isomers) [Example 32, 3-Methoxy-8-(4-methoxyphenyl)-8-(3-pyrimidin-5-ylphenyl)-2,3,4,8-tetrahydroimidazo[1,5-a]pyrimidin-6-amine] | 6.24
COc1cncc(-c2cccc(C3(c4ccncc4)N=C(N)N4CC(F)(F)CN=C43)c2)c1 (centres unmarked) [Example 43, 3,3-Difluoro-8-[3-(5-methoxypyridin-3-yl)phenyl]-8-pyridin-4-yl-2,3,4,8-tetrahydroimidazo[1,5-a]pyrimidin-6-amine acetate] | 7.39
CN(C)C(=O)c1ccc(C2(c3cccc(-c4cccnc4F)c3)N=C(N)N3CC(F)(F)CN=C32)cc1 (centres unmarked) [Example 70, 4-{6-Amino-3,3-difluoro-8-[3-(2-fluoropyridin-3-yl)phenyl]-2,3,4,8-tetrahydroimidazo[1,5-a]pyrimidin-8-yl}-N,N-dimethylbenzamide] | 5.68
COc1ccc(C2(c3ccc(F)c(-c4cncnc4)c3)N=C(N)N3CC(F)(F)CN=C32)cc1C (centres unmarked) [Example 88, 3,3-Difluoro-8-(4-fluoro-3-(pyrimidin-5-yl)phenyl)-8-(4-methoxy-3-methylphenyl)-2,3,48-tetrahydroimidazo[1,5-a]pyrimidin-6-amine acetate] | 7.04
CN(C)C(=O)c1cccc(C2(c3cccc(-c4cccnc4F)c3)N=C(N)N3CC(F)(F)CN=C32)c1 (centres unmarked) [Example 69, 3-{6-Amino-3,3-difluoro-8-[3-(2-fluoropyridin-3-yl)phenyl]-2,3,4,8-tetrahydroimidazo[1,5-a]pyrimidin-8-yl}-N,N-dimethylbenzamide] | 5.64
COc1ccc(C2(c3cccc(-c4cncnc4)c3)N=C(N)N3CC(S(C)(=O)=O)CN=C32)cc1 (mixture of isomers) [Example 28, 8-(4-Methoxyphenyl)-3-(methylsulfonyl)-8-(3-pyrimidin-5-ylphenyl)-2,3,4,8-tetrahydroimidazol[1,5-a]pyrimidin-6-amine 2.0 acetate] | 6.60
COc1ccc(C2(c3cccc(-c4cccnc4F)c3)N=C(N)N3CC(F)(F)CN=C32)cc1 (centres unmarked) [Example 42, 3,3-Difluoro-8-[3-(2-fluoropyridin-3-yl)phenyl]-8-(4-methoxyphenyl)-2,3,48-tetrahydroimidazo[1,5-a]pyrimidin-6-amine 0.75 acetate] | 7.54
COc1ccc(C2(c3cccc(-c4cccnc4)c3)N=C(N)N3CC(F)(F)CN=C32)cc1 (centres unmarked) [Example 40, 3,3-Difluoro-8-(4-methoxyphenyl)-8-(3-pyridin-3-ylphenyl)-2,3,4,8-tetrahydroimidazo[1,5-a]pyrimidin-6-amine 0.75 acetate] | 7.12
NC1=NC(c2ccncc2)(c2cccc(-c3cncc(F)c3)c2)C2=NCC(F)(F)CN12 (centres unmarked) [Example 47, 3,3-Difluoro-8-[3-(5-fluoropyridin-3-yl)phenyl]-8-pyridin-4-yl-2,3,4,8-tetrahydroimidazo[1,5-a]pyrimidin-6-amine acetate] | 7.23
COc1ccc(C2(c3cccc(-c4cncnc4)c3)N=C(N)N3CC(F)CN=C32)cc1 (mixture of isomers) [Example 50, 3-Fluoro-8-(4-methoxyphenyl)-8-(3-pyrimidin-5-ylphenyl)-2,3,4,8-tetrahydroimidazo[1,5-a]pyrimidin-6-amine 4.0 acetate] | 7.23
COc1ccc(C2(c3cccc(-c4cncc(OC)c4)c3)N=C(N)N3CC(F)(F)CN=C32)cc1 (centres unmarked) [Example 41, 3,3-Difluoro-8-(4-methoxyphenal)-8-[3-(5-methoxypyridin-3-yl)phenyl]-2,3,4,8-tetrahydroimidazo[1,5-a]pyrimidin-6-amine 0.75 acetate] | 7.52
COc1ccc(C2(c3cccc(-c4cncnc4)c3)N=C(N)N3CC(O)CN=C32)cc1 (mixture of isomers) [Example 30, 6-Amino-8-(4-methoxyphenyl)-8-(3-pyrimidin-5-ylphenyl)-2,3,4,8-tetrahydroimidazo[1,5-a]pyrimidin-3-ol] | 6.92
